Consider 4 molecules from paper PMC7524946, “[^11C]mHED PET follows a two-tissue compartment model in mouse myocardium with norepinephrine transporter (NET)-dependent uptake, while [^18F]LMI1195 uptake is NET-independent” (EJNMMI Research, 2020).

Data set [1] has as its system NET. The conditions noted are these: cited from earlier work; for D50: rat left ventricle wall.
In data set [2] the test system is NET. Set-up: method as in PMID 21555377, PMID 23601914. The conditions noted are these: rabbits; cited from earlier work.
In data set [3] the test system is NET. Set-up: method as in PMID 21555377, PMID 23601914. The conditions noted are these: rats; cited from earlier work.
For data set [4], the system named is NET. Set-up: method as in PMID 21555377, PMID 23601914. The conditions noted are these: human subjects; cited from earlier work.
For data set [5], the target named is T1, norepinephrine transporter (NET) (Mus musculus, UniProt O55192).
T1 construct: from tissue; host or cells: myocardium (sympathetic nerve terminals) of living FVB/N mice, in vivo PET/CT
T1 sequence (O55192 whole entry): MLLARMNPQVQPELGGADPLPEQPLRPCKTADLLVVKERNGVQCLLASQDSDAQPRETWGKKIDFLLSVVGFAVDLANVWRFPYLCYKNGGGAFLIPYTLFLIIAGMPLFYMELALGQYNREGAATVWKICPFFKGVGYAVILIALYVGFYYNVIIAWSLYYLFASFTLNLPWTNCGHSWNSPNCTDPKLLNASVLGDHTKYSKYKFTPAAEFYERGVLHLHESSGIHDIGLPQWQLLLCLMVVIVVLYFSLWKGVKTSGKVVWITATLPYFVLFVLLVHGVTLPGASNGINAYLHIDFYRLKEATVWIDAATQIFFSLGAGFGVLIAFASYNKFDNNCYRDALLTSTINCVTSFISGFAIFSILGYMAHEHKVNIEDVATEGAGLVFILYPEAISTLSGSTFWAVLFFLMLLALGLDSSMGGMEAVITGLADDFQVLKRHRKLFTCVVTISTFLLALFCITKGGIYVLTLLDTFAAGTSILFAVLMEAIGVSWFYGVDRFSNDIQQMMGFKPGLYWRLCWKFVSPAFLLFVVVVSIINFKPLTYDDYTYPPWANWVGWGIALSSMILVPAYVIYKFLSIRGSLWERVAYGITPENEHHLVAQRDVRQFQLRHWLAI
The data set can be described thus: PET/CT myocardial tracer uptake with desipramine blocking (specificity for NET). The format is in vivo, FVB/N mice. The following applies: 20 mg/kg desipramine HCl i.p. 10 min before tracer i.v. How it is done:
(§1) PET/computed tomography (CT) scans were performed with a calibrated SuperArgus PET/CT scanner (Sedecal, Madrid, Spain) with an axial field of view of 4.8 cm and a spatial resolution of 1.6–1.7 mm (full width at half maximum). Animals were under anaesthesia with ~ 2.5% isoflurane in oxygen/air (1:1) for tracer injection into the tail vein and during the scan. […] For scans without kinetic modelling, tracer was injected into mouse tail vein on scanner bed and the scan was started 1 min p.i. For kinetic modelling, [^11C]mHED was injected using the shunt system (see “Input function” section) on the scanner bed. Depth of anaesthesia was monitored by measuring the respiratory rate (SA Instruments, Inc., Stony Brook, USA). Body temperature was monitored by a rectal probe and kept at 37 °C by a heated air stream (37 °C). […] PET scans were followed by a CT for anatomical orientation.
Two [^11C]mHED scans (one baseline, one for kinetic modelling) were excluded from further analysis due to technical problems before or during the scan, respectively (not included in Table 1). […] Tissue radioactivity was either expressed as kBq/cm^3 or normalized to the injected dose per g body weight (kBq/g) and expressed as SUV, assuming a tissue density of 1 g/cm^3. […]

Data set [6] deals with NET. Set-up: method as in PMID 21555377, PMID 23601914. The following applies: nonhuman primates; cited from earlier work.
The procedure of data set [7]:
For determining activity concentration ratios of plasma to whole blood in mice, 11–90 MBq [^11C]mHED were injected intravenously (i.v.) via the tail vein in awake mice. After anaesthesia, animals were euthanized at the indicated time points and blood was collected. An aliquot was centrifuged as described above to separate plasma from blood cells. Plasma and whole blood activity concentrations (Bq/ml) were determined by a gamma counter (Wizard 1480; Perkin Elmer) to calculate the plasma/whole blood activity concentration ratio (ρplasma/blood). Bi-exponential function (Eq. 2) was fit to ρplasma/blood over time using the nls function of R.2 ρplasma/blood=r1×exp-r3×t-r2×exp-r4×t+r2
In Eq. 2, r1 to r4 are the fit parameters and t is the time.

For data set [8] the following is noted: after [^11C]mHED i.v. injection.
Description: Mice were injected awake with formulated [^11C]mHED (26–173 MBq) via the tail vein. Animals were anaesthetized with 5% isoflurane in oxygen/air (1:1) and euthanized by decapitation at the indicated time points to collect blood, urine, and heart tissue. Plasma was separated from blood by centrifugation (5000×g for 5 min at 4 °C). Plasma and urine were each mixed with equal volumes of ice-cold acetonitrile (MeCN) for protein precipitation. The dissected heart was homogenized in 2 ml PBS, and proteins were precipitated with 2 ml ice-cold MeCN. The samples were centrifuged (5000×g, 4 °C), and the supernatants were filtered and analysed by radio-UPLC (Waters Acquity UPLC HSS T3 1.8 µm) with the following separation conditions: 10 mM NH4HCO3 (solvent A), MeCN (solvent B); 0.0–1.0 min, 5–30% B; 1.0–1.7 min, 30% B; 1.7–1.8 min, 30–5% B and 1.8–3.0 min, 5% B at a flow rate of 0.5 ml/min (retention time: 1.75 min). The fraction of parent tracer radioactivity to total radioactivity in plasma (fparent) was calculated as the ratio of radioactivity in the [^11C]mHED peak and total detected radioactivity in the chromatogram.
In Eq. 1, q1 to q4 are the fit parameters (q3 was estimated and fixed) and t is the time. Equation 1 was empirically defined, taking into account the exponential functions of time under linear kinetics and a lag phase for metabolite formation.
Data set [9] concerns NET. Set-up: method as in PMID 20679472, PMID 9290077. The following applies: mouse myocardium; cited from earlier work.
Data set [10] concerns myocardium. Set-up: method as in PMID 27230922. The conditions noted are these: humans, recent PET study; cited from earlier work.
The target of data set [11] is T1, norepinephrine transporter (NET). Kind of data set: Dose dependency of myocardial [^11C]mHED uptake by PET/CT (NET saturation). The format is in vivo, FVB/N mice. The following applies: mouse myocardium. As to the method: as §1
For quantitative analyses, PET data in NIfTI file format were read with the R package oro.nifti version 0.9.1, and a cube of 36 × 30 × 30 voxels (8.7 × 7.3 × 7.3 mm^3) including the heart as judged from the PET and CT data was cropped. A liver mask was defined including all voxels with a slope ≥ − 0.012 SUV/min between 11 and 48 min p.i. (the slope limit was empirically defined by visual inspection of the results, Fig. 1). PET data corresponding to the liver mask were excluded. The myocardium mask was defined from the remaining data as the volume with highest SUV between 3 and 11 min p.i., corresponding to 0.5% of the individual body weight. Average SUV was calculated for the indicated time windows (stated as SUVstart time–end time). The SUV of the neck region was obtained from a spherical region of interest with 3 mm radius, placed over the shoulders, close to the spine.
The dose of combined administered [^11C]mHED and metaraminol (precursor for radiosynthesis) at half-maximal NET saturation in nmol/kg (D50) was calculated from the myocardial SUV1–31 min at various doses (D). […] Fit parameters were SUV1–31 min at indefinitely low dose (SUVmax), SUV1–31 min at full NET saturation, i.e. SUV1–31 min for nondisplaceable tracer (SUVmin) and D50, according to Eq. 3 which was fit to the data with the function nls of R.3 SUV1-31min=SUVmax-SUVmin×D50/D50+D+SUVmin

Data set [12] has as its system mouse myocardium. Kind of data set: [^11C]mHED PET kinetic (compartment) modelling with arteriovenous shunt input function. The following applies: mean of 3 scans (SD). The format is in vivo, FVB/N mice. As to the method: as §1
For kinetic modelling, an arteriovenous shunt system was applied to record the coincidences of arterial blood (Twilite, Swisstrace, Zurich, Switzerland) simultaneously with the PET data acquisition (Additional file 1). The resulting blood coincidences were transformed to Bq/ml with a calibration factor determined from simultaneous measurements of an [^11C]mHED solution in the PET scanner and the blood counter. Next, the blood Bq/ml was multiplied with fitted Eq. 2 to calculate the plasma activity concentration. Finally, the plasma Bq/ml was multiplied with fitted Eq. 1 to receive the parent tracer Bq/ml in plasma, which is the input function.
PET kinetic modelling with R was performed with a one- and three two-tissue compartment models according to Eq. 4,4 CPET=1-vb×Wmodel⊗Ca+vb×Cb where CPET is the activity concentration in the PET image, either as kBq/cm^3 or normalised as SUV, vb is the partial volume of blood in the region-of-interest (potentially including interstitial space), Wmodel is the model-dependent weighting function. Ca is the parent tracer activity concentration in the arterial plasma (input function, kBq/ml, or SUV), and Cb is the whole blood activity concentration as calculated from the blood coincidences, in kBq/cm^3 or as SUV.
WTCM1 for the one-tissue compartment model (TCM1, Fig. 2a) corresponds to K1 × exp(− k2 × t), with t as time, K1 and k2 the clearance term from plasma to tissue and rate constant back, respectively. WTCM2p and WTCM2s for the two-tissue compartment models with parallel (TCM2p, Fig. 2b) and serial (TCM2s, Fig. 2c) tissue compartments, respectively, were according to Eqs. 5–10 [16]. In the case of the TCM2p, K1, k2, K3, and k4 correspond to φ1, θ1, φ2, and θ2, respectively, of Eq. 5. WTCM2v for the two-tissue compartment model in Fig. 2d (TCM2v) was numerically solved from the differential equation system in Eqs. 11 and 12 with the R package deSolve and the ode function, with 1-s time intervals.
Besides the transfer clearance or rate constants K1, k2, k3 (or K3 for TCM2p), and k4, vb was included as a parameter to fit. Equation 3 was fit to the experimental TACs applying the optim minimization function of R.
Fits were run with multiple starts with a matrix of 101 sets of random start parameters between lower and upper limits for K1, k2, k3 (or K3), k4, and vb (Additional file 1: Table S1). The activity concentrations in the individual tissue compartments were simulated by numerically solving the respective differential equation systems for TCM2s and TCM2v and from the analytical solutions for TCM2p (the two exponential terms of Eq. 5). Calculations were performed in parallel on a 32 core workstation. Best fits were chosen based on the sum of squared residues (SSR) between predicted and experimental TACs. […] Correlations between parameters were calculated with the lm, cor, and cor.test functions of R and were considered significant at p < 0.05.

Setting [13] is: volume-of-interest 0.5% body volume.

The structures appear in SMILES notation. Values joined by “and” are separate entries in the source; they are usually repeats but may differ in a detail not shown here. Identical values can stand only once. “Also recorded” adds a separate entry of the source. Like-named read-outs stand apart in the source and are kept apart here.

Regarding `CNC(C)C(O)c1cccc(O)c1` (stereo not shown) [mHED, meta-hydroxyephedrine], the D50 in [1] is 90 to 100 nmol/kg.

Consider `C[C@H](N)[C@H](O)c1cccc(O)c1` [metaraminol], for which the D50 in data set [1] was 90 to 100 nmol/kg.

Take `N=C(N)NCc1ccc(OCCC[18F])c(Br)c1` [[^18F]LMI1195, [^18F]flubrobenguane]: the “Desipramine sensitivity of cardiac uptake” value in [2] is recorded as “desipramine-sensitive”; in [3], “not in rats”; in data set [4], “desipramine-sensitive”; in data set [6], “desipramine-sensitive”. Besides, the “Blocking of myocardial tracer uptake by desipramine” value in data set [5] is on record as “not”.

Take `C[C@H](N[11CH3])[C@H](O)c1cccc(O)c1` [[^11C]mHED, [^11C]meta-hydroxyephedrine]: the “Reported D50” value in data set [1] (rat myocardium) is reported as 91 nmol/kg; in [9], 132 nmol/kg. Moreover, the “ρplasma/blood (plasma/whole blood activity concentration ratio)” value in data set [7] (at 3 min) is given as ~ 0.6; in data set [7] (constant value from ~ 20 min onwards), ~ 1; in data set [7] (time t = 0, assumed 1/(1-Hkt), hematocrit 0.458) it was 1.85. For the same molecule, the “Radiometabolite in plasma and urine” value in data set [8] (mouse) is “detected a radiometabolite in plasma and urine”. Further, in data set [8] (mouse heart extract), the Radiometabolite in myocardium entry is “no radiometabolite were detected”. In [5], the “Blocking of myocardial tracer uptake by desipramine” value was “significantly reduced; also recorded: blocking effect was observed”. Also, the “K1 of [^11C]mHED uptake” value in data set [10] is recorded as “up to 0.6 ml/min/g”. Moreover, in data set [11] (from SUV1–31 min, fit Eq. 3, n = 14 scans), the “D50 (dose of combined [^11C]mHED and metaraminol at half-maximal NET saturation)” value is reported as 88.3 nmol/kg. For the same molecule, the “D50 (dose at half-maximal NET saturation)” value in data set [11] (from SUV1–61 min (complete scan duration)) is reported as 89.1 nmol/kg. The “Fit SUVmax (SUV1–31 min at indefinitely low dose)” value in [11] (setting [13]) came out at 4.4. For the same molecule, the “Fit SUVmin (SUV1–31 min at full NET saturation, nondisplaceable tracer)” value in data set [11] (setting [13]) came out at 1.0. The K1 in [12] (TCM1) was 0.87 ± 0.11 ml/min/cm^3 and 0.868 (0.113) ml/min/cm^3; in [12] (TCM2p), 0.499 (0.153) ml/min/cm^3; in [12] (TCM2s) it was 0.947 ± 0.146 ml/min/cm^3 and 0.947 (0.146) ml/min/cm^3; in data set [12] (TCM2v), 0.947 ± 0.146 ml/min/cm^3 and 0.947 (0.146) ml/min/cm^3. For the same molecule, the k2 was 0.029 (0.01) 1/min in data set [12] (TCM1), 0.0125 (0.0034) 1/min in data set [12] (TCM2p), 0.0672 (0.0062) 1/min in data set [12] (TCM2s) and 0.0672 (0.0062) 1/min in [12] (TCM2v). Also, the K3 in [12] (TCM2p) is 0.448 (0.114) ml/min/cm^3. Further, the values for the k4 in data set [12] (TCM2p), in data set [12] (TCM2s) and in data set [12] (TCM2v) were 0.134 (0.040) 1/min, 0.0254 (0.0117) 1/min and 0.0125 (0.0034) 1/min, respectively. Also, the k3 is listed as 0.0541 (0.0263) 1/min in data set [12] (TCM2s) and 0.0669 (0.0344) 1/min in data set [12] (TCM2v).
